# According to patent US20040219098A1, “Methods for the treatment of tumors” (priority 2003, published 2004):
# Legend:
# [1] = test system: JJ5 Breast Cancer cells; test: Growth inhibition assay against JJ5 breast cancer cells; assay type: cell-based, human; conditions: cultured 4 days
# Procedure: JJ5 breast cancer cells (prepared from BCBM JJ5) expressing approximately 10^6 epidermal growth factor receptors/cell were incubated with EGF-^111In-labeled transferrin composition, unlabeled hEGF or ^111In-oxine, centrifuged to remove free ligand, then assayed and seeded (10^6 cells/dish) into 35 mm culture dishes. Growth medium was added and the cells were cultured at 37° C./5% CO^2 for 4 days. The cells were then recovered by trypsinization and counted in a hemocytometer. Control dishes contained cells cultured in growth medium containing ^111In-DTPA or growth medium alone.
# [2] = test system: JJ5 Breast Cancer cells; test: Cytotoxicity (colony-forming) assay against JJ5 breast cancer cells; assay type: cell-based, human; conditions: 14 days
# Procedure: JJ5 breast cancer cells were incubated with increasing amounts EGF-^111In-labeled transferrin composition or ^111In-oxine, centrifuged to remove free ligand, assayed and then seeded into 50 mm culture dishes. The number of cells seeded was varied from 3×10^4 to 3×10^6 cells to obtain approximately 400 viable colonies/dish taking into account the plating efficiency and the expected level of cytotoxicity. Control dishes contained JJ5 breast cancer cells which were incubated with normal saline. Growth medium was added and the cells were cultured at 37° C./5% CO^2 for 14 days. The growth medium was removed and the colonies were stained with methylene blue (1% in a 1:1 mixture of ethanol and water) then washed twice. The number of colonies per dish was counted using a manual colony counter (Manostat Corp). The plating efficiency was calculated by dividing the number of colonies observed by the number of cells seeded in each dish. The surviving fraction at increasing amounts of EGF-^111In-labeled transferrin composition or ^111In-oxine was calculated by dividing the plating efficiency for dishes containing treated cells with that observed for control dishes with normal saline.
# Using a colony-forming assay, the radiotoxicity of internalization for JJ5 breast cancer cells was evaluated.
# [3] = test system: JJ5 Breast Cancer cells; test: Binding of EGF-111In-labeled transferrin composition to breast cancer cells (radioligand binding, kinetics, retention, internalization); set-up: species or system human; conditions: for binding / internalization by cancer cells (in words): JJ5 breast cancer cells
# Description: Breast cancer cells express up to 100-fold higher levels of EGFR than do normal epithelial tissues. EGFR expression in breast cancer bone metastasis biopsies ranged from 1-1300 fmol/mg membrane protein (approximately 400-1,000,000 receptors/cell) and was associated with high relapse rates and poor long term survival. Normal epithelial cells express <10^4 receptors/cell. For the normal breast cell line HBL-100, 8000 EGFR/cell has been reported. The expression of EGFR in breast cancer cell lines has a reported range of 800 EGFR/cell for MCF-7 cells to 10^6 EGFR/cell for MDA-MB-468 cells. […] Utilizing the Auger electron emitter In was used in the initial experiments to illustrate the utility of the invention using EGF-^111In-labeled transferrin compositions. The EGF-^111In-labeled transferrin (0.25-80 ng) was incubated with 1.5×10^6 cells/dish JJ5 Breast Cancer (prepared from BCBM JJ5) cells in 1 mL of 0.1% human serum albumin in 35 mm multiwell culture dishes at 37° C. for 30 minutes. The cells were transferred to a centrifuge tube and centrifuged. The cell pellet was separated from the supernatant and counted in a g-scintillation counter to determine bound (B) and free (F) radioactivity. Non-specific binding was determined by conducting the assay in 100 nM hEGF. The kinetics of binding was determined by incubating 1 ng of EGF-^111In-labeled transferrin composition with 3×10^6 JJ5 Breast Cancer cells at 37° C. and determining the proportion of radioactivity bound to the cells at various times up to 24 hours. Internalized fraction was measured by determining the proportion of radioactivity which could not be displaced from the cell surface by 100 nM hEGF. Cell-associated binding (surface-binding and intracellular accumulation) was expressed as a percentage of medium radioactivity bound per mg of cell study protein.
# EGF-^111In-labeled transferrin composition was rapidly bound by the breast cancer cells and retained for at least 24 hours. Over a 24 hour period at 37° C., <8% was lost from the cells in vitro.
Compound,growth inhibition of the JJ5 cells compared to the medium control ([1]; 3.5 pCi/cell),cell killing ([2]; <6 pCi/cell),growth inhibition of the JJ5 cells compared to the medium control ([1]; 3.4 pCi/cell),"time retained by the breast cancer cells ([3]; 37° C., in vitro)",binding / internalization by cancer cells (in words) [3],binding / internalization by cancer cells (in words) ([3]; listed as EGF-^111In-labeled transferrin compostions),"affinity constant for binding to JJ5 cells ([3]; association (affinity) constant, 37° C., 30 minutes, non-specific binding in 100 nM hEGF)","111In radioactivity lost from the cells ([3]; over a 24 hour period at 37° C., in vitro)",reduction in cell survival ([2]; 8 pCi/cell)
"[In+3].[O-]c1cccc2cccnc12.[O-]c1cccc2cccnc12.[O-]c1cccc2cccnc12 [^111In oxine, reference compound]",91%,greater than 99%,–,–,–,–,–,–,–
EGF-^111In-labeled transferrin composition: human epidermal growth factor (EGF) operatively linked via linker-biotin/streptavidin to 111In-radiolabeled human transferrin,–,–,83%,at least 24 hours,rapidly bound,rapidly internalized,8e+08 L/mol,< 8%,99%
